Active and inactive are the calls of the source. No cut-off for these calls is given here.
How the values were obtained:
Rattus norvegicus [1] = experiment: Antihyperglycemic activity in sucrose challenged albino Sprague-Dawley rat STZ-S model assessed as decrease in blood glucose level at 100 mg/kg, po preincubated 30 min before sucrose challenge measured 5 hrs after last dose; assay type: functional; design: scale not given: the % may be the effect or the level left
Rattus norvegicus [2] = experiment: Antihyperglycemic activity in sucrose challenged albino Sprague-Dawley rat STZ-S model assessed as decrease in blood glucose level at 100 mg/kg, po preincubated 30 min before sucrose challenge measured 24 hrs after last dose; assay type: functional; design: scale not given: the % may be the effect or the level left
Syrian golden hamster [3] = experiment: Antidyslipidemic activity in high fat diet fed dyslipidemic golden Syrian hamster model assessed as change in food intake at 50 mg/kg, po administered once daily from day 4 to day 10 measured on day 10 after 2 hrs of last dose relative to baseline; assay type: functional, Mesocricetus auratus
Syrian golden hamster [4] = experiment: Antidyslipidemic activity in high fat diet fed dyslipidemic golden Syrian hamster model assessed as change in plasma triglyceride level at 50 mg/kg, po administered once daily from day 4 to day 10 measured on day 10 after 2 hrs of last dose relative to baseline; assay type: functional, Mesocricetus auratus
Syrian golden hamster [5] = experiment: Antidyslipidemic activity in high fat diet fed dyslipidemic golden Syrian hamster model assessed as change in plasma cholesterol level at 50 mg/kg, po administered once daily from day 4 to day 10 measured on day 10 after 2 hrs of last dose relative to baseline; assay type: functional, Mesocricetus auratus
Syrian golden hamster [6] = experiment: Antidyslipidemic activity in high fat diet fed dyslipidemic golden Syrian hamster model assessed as change in plasma HDL-cholesterol level at 50 mg/kg, po administered once daily from day 4 to day 10 measured on day 10 after 2 hrs of last dose relative to baseline; assay type: functional, Mesocricetus auratus
Syrian golden hamster [7] = experiment: Antidyslipidemic activity in high fat diet fed dyslipidemic golden Syrian hamster model assessed as change in plasma […] level at 50 mg/kg, po administered once daily from day 4 to day 10 measured on day 10 after 2 hrs of last dose relative to baseline; assay type: functional, Mesocricetus auratus
Syrian golden hamster [8] = experiment: Antidyslipidemic activity in high fat diet fed dyslipidemic golden Syrian hamster model assessed as change in plasma glycerol level at 50 mg/kg, po administered once daily from day 4 to day 10 measured on day 10 after 2 hrs of last dose relative to baseline; assay type: functional, Mesocricetus auratus
Syrian golden hamster [9] = experiment: Antidyslipidemic activity in high fat diet fed dyslipidemic golden Syrian hamster model assessed as change in plasma HDL to cholesterol ratio at 50 mg/kg, po administered once daily from day 4 to day 10 measured on day 10 after 2 hrs of last dose relative to baseline; assay type: functional, Mesocricetus auratus
Syrian golden hamster [10] = experiment: Antidyslipidemic activity in high fat diet fed dyslipidemic golden Syrian hamster model assessed as change in plasma triglyceride level at 100 mg/kg, po administered once daily from day 4 to day 10 measured on day 10 after 2 hrs of last dose relative to baseline; assay type: functional, Mesocricetus auratus
Syrian golden hamster [11] = experiment: Antidyslipidemic activity in high fat diet fed dyslipidemic golden Syrian hamster model assessed as change in plasma cholesterol level at 100 mg/kg, po administered once daily from day 4 to day 10 measured on day 10 after 2 hrs of last dose relative to baseline; assay type: functional, Mesocricetus auratus
Syrian golden hamster [12] = experiment: Antidyslipidemic activity in high fat diet fed dyslipidemic golden Syrian hamster model assessed as change in plasma glycerol level at 100 mg/kg, po administered once daily from day 4 to day 10 measured on day 10 after 2 hrs of last dose relative to baseline; assay type: functional, Mesocricetus auratus
Syrian golden hamster [13] = experiment: Antidyslipidemic activity in high fat diet fed dyslipidemic golden Syrian hamster model assessed as change in plasma free fatty acid level at 100 mg/kg, po administered once daily from day 4 to day 10 measured on day 10 after 2 hrs of last dose relative to baseline; assay type: functional, Mesocricetus auratus
Syrian golden hamster [14] = experiment: Antidyslipidemic activity in high fat diet fed dyslipidemic golden Syrian hamster model assessed as change in plasma HDL-cholesterol level at 100 mg/kg, po administered once daily from day 4 to day 10 measured on day 10 after 2 hrs of last dose relative to baseline; assay type: functional, Mesocricetus auratus
Syrian golden hamster [15] = experiment: Antidyslipidemic activity in high fat diet fed dyslipidemic golden Syrian hamster model assessed as change in plasma HDL to cholesterol ratio at 100 mg/kg, po administered once daily from day 4 to day 10 measured on day 10 after 2 hrs of last dose relative to baseline; assay type: functional, Mesocricetus auratus
Syrian golden hamster [16] = experiment: Antidyslipidemic activity in high fat diet fed dyslipidemic golden Syrian hamster model assessed as change in plasma triglyceride level at 108 mg/kg, po administered once daily from day 4 to day 10 measured on day 10 after 2 hrs of last dose; assay type: functional, Mesocricetus auratus
Syrian golden hamster [17] = experiment: Antidyslipidemic activity in high fat diet fed dyslipidemic golden Syrian hamster model assessed as change in plasma cholesterol level at 108 mg/kg, po administered once daily from day 4 to day 10 measured on day 10 after 2 hrs of last dose; assay type: functional, Mesocricetus auratus
Syrian golden hamster [18] = experiment: Antidyslipidemic activity in high fat diet fed dyslipidemic golden Syrian hamster model assessed as change in plasma HDL-cholesterol level at 108 mg/kg, po administered once daily from day 4 to day 10 measured on day 10 after 2 hrs of last dose; assay type: functional, organism-based; design: dose 108 mg/kg; details: Mesocricetus auratus
Syrian golden hamster [19] = experiment: Antidyslipidemic activity in high fat diet fed dyslipidemic golden Syrian hamster model assessed as change in plasma glycerol level at 108 mg/kg, po administered once daily from day 4 to day 10 measured on day 10 after 2 hrs of last dose; assay type: functional, Mesocricetus auratus
Syrian golden hamster [20] = experiment: Antidyslipidemic activity in high fat diet fed dyslipidemic golden Syrian hamster model assessed as change in plasma HDL to cholesterol ratio at 108 mg/kg, po administered once daily from day 4 to day 10 measured on day 10 after 2 hrs of last dose; assay type: functional, Mesocricetus auratus

SMILES	Activity (Rattus norvegicus [1]) [%]	Activity (Rattus norvegicus [2]) [%]	Activity (Syrian golden hamster [3]) [%]	Activity (Syrian golden hamster [4]) [%]	Activity (Syrian golden hamster [5]) [%]	Activity (Syrian golden hamster [6]) [%]	Activity (Syrian golden hamster [7]) [%]	Activity (Syrian golden hamster [8]) [%]	Activity (Syrian golden hamster [9]) [%]	further results
C=C(C)[C@@H]1CC[C@]2(C)CC[C@]3(C)[C@H](CC[C@@H]4[C@@]5(C)CC[C@H](OC(=O)c6ccc(Cl)cc6)C(C)(C)[C@@H]5CC[C@]43C)[C@@H]12	-17.8	-19.6	4	-11	-27	-14	5	-14	14	
CN(C)C(=N)NC(=N)N [METFORMIN]	-23.5	-26.5								
C=C(C)[C@@H]1CC[C@]2(C)CC[C@]3(C)[C@H](CC[C@@H]4[C@@]5(C)CC[C@H](OC(=O)Cc6ccccn6)C(C)(C)[C@@H]5CC[C@]43C)[C@@H]12	-20.5	-18.2								
C=C(C)[C@@H]1CC[C@]2(C)CC[C@]3(C)[C@H](CC[C@@H]4[C@@]5(C)CC[C@H](OC(=O)c6ccc7ccccc7n6)C(C)(C)[C@@H]5CC[C@]43C)[C@@H]12			11	-7	-27	-30	-8	-20	-5	
C=C(C)[C@@H]1CC[C@]2(C)CC[C@]3(C)[C@H](CC[C@@H]4[C@@]5(C)CC[C@H](OC(=O)/C=C/c6cccs6)C(C)(C)[C@@H]5CC[C@]43C)[C@@H]12	-12.5	-14.9								
C=C(C)[C@@H]1CC[C@]2(C)CC[C@]3(C)[C@H](CC[C@@H]4[C@@]5(C)CC[C@H](O)C(C)(C)[C@@H]5CC[C@]43C)[C@@H]12 [LUPEOL]										Activity (Syrian golden hamster [10]): -26%; Activity (Syrian golden hamster [11]): -9%; Activity (Syrian golden hamster [12]): -10%; Activity (Syrian golden hamster [13]): -23%; Activity (Syrian golden hamster [14]): 44%; Activity (Syrian golden hamster [15]): 63%
C=C(C)[C@@H]1CC[C@]2(C)CC[C@]3(C)[C@H](CC[C@@H]4[C@@]5(C)CC[C@H](OC(=O)/C=C/c6ccco6)C(C)(C)[C@@H]5CC[C@]43C)[C@@H]12	-15.8	-18.5								
CC(C)OC(=O)C(C)(C)Oc1ccc(C(=O)c2ccc(Cl)cc2)cc1 [FENOFIBRATE]										Activity (Syrian golden hamster [16]): -42%; Activity (Syrian golden hamster [17]): -18%; Activity (Syrian golden hamster [18]): inactive; Activity (Syrian golden hamster [19]): -36%; Activity (Syrian golden hamster [20]): 10%
C=C(C)[C@@H]1CC[C@]2(C)CC[C@]3(C)[C@H](CC[C@@H]4[C@@]5(C)CC[C@H](OC(=O)/C=C/c6ccsc6)C(C)(C)[C@@H]5CC[C@]43C)[C@@H]12	-16.9	-21.5								
C=C(C)[C@@H]1CC[C@]2(C)CC[C@]3(C)[C@H](CC[C@@H]4[C@@]5(C)CC[C@H](OC(=O)c6cccnc6)C(C)(C)[C@@H]5CC[C@]43C)[C@@H]12	-18.3	-25	8	-40	-24	5	2	-30	57	
C=C(C)[C@@H]1CC[C@]2(C)CC[C@]3(C)[C@H](CC[C@@H]4[C@@]5(C)CC[C@H](OC(=O)/C=C/c6cccnc6)C(C)(C)[C@@H]5CC[C@]43C)[C@@H]12	-13.4	-15.7								
C=C(C)[C@@H]1CC[C@]2(C)CC[C@]3(C)[C@H](CC[C@@H]4[C@@]5(C)CC[C@H](OC(=O)c6ccc([N+](=O)[O-])cc6)C(C)(C)[C@@H]5CC[C@]43C)[C@@H]12	-14.8	-21.1	4	-20	-34	-30	6	-21	4	
C=C(C)[C@@H]1CC[C@]2(C)CC[C@]3(C)[C@H](CC[C@@H]4[C@@]5(C)CC[C@H](OC(=O)CNC(=O)c6ccccc6)C(C)(C)[C@@H]5CC[C@]43C)[C@@H]12	-13.8	-23.6								
C=C(C)[C@@H]1CC[C@]2(C)CC[C@]3(C)[C@H](CC[C@@H]4[C@@]5(C)CC[C@H](OC(=O)Cc6ccc(OC)cc6)C(C)(C)[C@@H]5CC[C@]43C)[C@@H]12			-4	20	-25	-5	4	-8	24	
C=C(C)[C@@H]1CC[C@]2(C)CC[C@]3(C)[C@H](CC[C@@H]4[C@@]5(C)CC[C@H](OC(=O)CCc6cccnc6)C(C)(C)[C@@H]5CC[C@]43C)[C@@H]12	-8.21	-10.4								

Source: ChEMBL document CHEMBL1153634, “Synthesis of novel triterpenoid (lupeol) derivatives and their in vivo antihyperglycemic and antidyslipidemic activity” (2009)
